# In US8664206B2, “Diastereomers of 2-methylene-19-nor-22-methyl-1α,25-dihydroxyvitamin D3” (Wisconsin Alumni Research Foundation, priority 2010, dated 2014):
# Entries after “also recorded” stand apart in the source; their conditions may differ.
# What was measured:
# HL-60 cells = assay: HL-60 differentiation (nitro blue tetrazolium reduction); type: cell-based, human; conditions: for HL-60 cell differentiation, times more potent than the native hormone: fold MORE potent/active than 1,25(OH)2D3; for EC50: Homo sapiens, HL-60; for HL-60 Differentiation Relative Activity: relative to the native hormone 1,25(OH)2D3 in the same assay, (value for native hormone)/(value for working example), >1 = more active
# Experimental: The study drugs were dissolved in ethanol and the concentrations determined using UV spectrophotometry. Serial dilutions were prepared so that a range of drug concentrations could be tested without changing the final concentration of ethanol (≦0.2%) present in the cell cultures.
# Human promyelocytic leukemia (HL60) cells were grown in RPMI-1640 medium containing 10% fetal bovine serum. The cells were incubated at 37° C. in the presence of 5% CO2.
# HL60 cells were plated at 1.2×10^5 cells/ml. Eighteen hours after plating, cells in duplicate were treated with drug. Four days later, the cells were harvested and a nitro blue tetrazolium reduction assay was performed (Collins et al., 1979; J. Exp. Med. 149:969-974). The percentage of differentiated cells was determined by counting a total of 200 cells and recording the number that contained intracellular black-blue formazan deposits. Verification of differentiation to monocytic cells was determined by measuring phagocytic activity (data not shown).
# Sprague-Dawley rats [1] = assay: Bone calcium mobilization (serum calcium); type: in vivo, rat; conditions: for bone calcium mobilization activity compared with 1,25(OH)2D3 (in words): intraperitoneal doses
# Experimental: (§1) Male, weanling Sprague-Dawley rats were placed on Diet 11 (0.47% Ca) diet+AEK oil for one week followed by Diet 11 (0.02% Ca)+AEK oil for 3 weeks. The rats were then switched to a diet containing 0.47% Ca for one week followed by two weeks on a diet containing 0.02% Ca. Dose administration began during the last week on 0.02% calcium diet. Four consecutive intraperitoneal doses were given approximately 24 hours apart. Twenty-four hours after the last dose, blood was collected from the severed neck and the concentration of serum calcium determined as a measure of bone calcium mobilization. The first 10 cm of the intestine was also collected for intestinal calcium transport analysis using the everted gut sac method.
# Sprague-Dawley rats [2] = assay: Intestinal calcium transport (everted gut sac method); type: in vivo, rat; conditions: for net intestinal calcium transport, serosal to mucosal ratio / intestinal calcium transport activity compared with 1,25(OH)2D3 (in words): rat; for net intestinal calcium transport, serosal to mucosal ratio: relative to vehicle; for intestinal calcium transport activity compared with 1,25(OH)2D3 (in words): intraperitoneal doses
# Experimental: as §1
# [3] = biological target: T1, vitamin D receptor (full-length recombinant rat receptor) (Rattus norvegicus, UniProt P13053); assay: Vitamin D receptor competitive binding; conditions: for binding to the nuclear vitamin D receptor compared with 1,25(OH)2D3 (in words): competitive binding against 3H-1,25(OH)2D3, recombinant rat receptor; for Ki: read-out: Competitive VDR Binding (Ki)
# T1 construct: Full-length recombinant rat receptor was expressed in E. coli; His tag (C); made in house; host or cells: E. coli BL21(DE3) Codon Plus RIL
# T1 sequence (P13053 1-423): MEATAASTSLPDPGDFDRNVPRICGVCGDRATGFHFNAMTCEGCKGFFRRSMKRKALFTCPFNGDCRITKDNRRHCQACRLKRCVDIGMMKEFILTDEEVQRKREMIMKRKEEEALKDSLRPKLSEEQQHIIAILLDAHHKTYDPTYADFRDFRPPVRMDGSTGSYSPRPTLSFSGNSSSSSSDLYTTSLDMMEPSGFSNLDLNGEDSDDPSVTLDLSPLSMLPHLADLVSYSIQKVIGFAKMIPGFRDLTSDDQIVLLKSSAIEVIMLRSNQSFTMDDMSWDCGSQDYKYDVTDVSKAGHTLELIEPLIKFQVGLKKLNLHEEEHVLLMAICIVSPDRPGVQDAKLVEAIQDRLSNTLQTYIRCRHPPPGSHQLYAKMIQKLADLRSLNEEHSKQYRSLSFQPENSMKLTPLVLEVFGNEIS
# Experimental: Full-length recombinant rat receptor was expressed in E. coli BL21(DE3) Codon Plus RIL cells and purified to homogeneity using two different column chromatography systems. The first system was a nickel affinity resin that utilizes the C-terminal histidine tag on this protein. The protein that was eluted from this resin was further purified using ion exchange chromatography (S-Sepharose Fast Flow). Aliquots of the purified protein were quick frozen in liquid nitrogen and stored at −80° C. until use. For use in binding assays, the protein was diluted in TEDK50 (50 mM Tris, 1.5 mM EDTA, pH 7.4, 5 mM DTT, 150 mM KCl) with 0.1% Chaps detergent. The receptor protein and ligand concentration was optimized such that no more than 20% of the added radiolabeled ligand was bound to the receptor.
# Unlabeled ligands were dissolved in ethanol and the concentrations determined using UV spectrophotometry (1,25(OH)2D3: molar extinction coefficient=18,200 and λmax=265 nm; Analogs: molar extinction coefficient=42,000 and λmax=252 nm). Radiolabeled ligand (^3H-1,25(OH)2D3, ˜159 Ci/mmole) was added in ethanol at a final concentration of 1 nM.
# Radiolabeled and unlabeled ligands were added to 100 mcl of the diluted protein at a final ethanol concentration of ≦10%, mixed and incubated overnight on ice to reach binding equilibrium. The following day, 100 mcl of hydroxylapatite slurry (50%) was added to each tube and mixed at 10-minute intervals for 30 minutes. The hydroxylapatite was collected by centrifugation and then washed three times with Tris-EDTA buffer (50 mM Tris, 1.5 mM EDTA, pH 7.4) containing 0.5% Titron X-100. After the final wash, the pellets were transferred to scintillation vials containing 4 ml of Biosafe II scintillation cocktail, mixed and placed in a scintillation counter. Total binding was determined from the tubes containing only radiolabeled ligand.
# [4] = tested on: 24-hydroxylase (24OHase) gene promoter; assay: In vitro transcription assay (24-hydroxylase promoter-luciferase in ROS 17/2.8 bone cells); type: cell-based, rat; conditions: for EC50: Rattus norvegicus; for 24OHase Transcription Relative Activity: relative to the native hormone 1,25(OH)2D3 in the same assay, (value for native hormone)/(value for working example), >1 = more active
# Experimental: Transcription activity was measured in ROS 17/2.8 (bone) cells that were stably transfected with a 24-hydroxylase (24OHase) gene promoter upstream of a luciferase reporter gene (Arbour et al., 1998). Cells were given a range of doses. Sixteen hours after dosing the cells were harvested and luciferase activities were measured using a luminometer. RLU=relative luciferase units.
SMILES,Ki [3] [pM],EC50 [4] [pM],EC50 (HL-60 cells) [pM],"net intestinal calcium transport, serosal to mucosal ratio (Sprague-Dawley rats [2])","binding to the nuclear vitamin D receptor compared with 1,25(OH)2D3 (in words) [3]","24-hydroxylase transcription activity compared with 1,25(OH)2D3 (in words) ([4]; bone cells)",24OHase Transcription Relative Activity [4],cell differentiation activity (in words) (HL-60 cells),HL-60 Differentiation Relative Activity (HL-60 cells),"bone calcium mobilization activity compared with 1,25(OH)2D3 (in words) (Sprague-Dawley rats [1]; rat)","intestinal calcium transport activity compared with 1,25(OH)2D3 (in words) (Sprague-Dawley rats [2])",further results
"C=C1C(O)CC(=CC=C2CCCC3(C)C2CCC3[C@@H](C)CCCC(C)(C)O)CC1O (single isomer, unassigned) [20R isomer of 2MD, 2-methylene-19-nor-1α,25-dihydroxyvitamin D3, reference compound]",–,–,–,−0.6,–,–,–,–,–,–,–,"HL-60 cell differentiation, times more potent than the native hormone (HL-60 cells): 0.95 times; net bone calcium mobilization activity (Sprague-Dawley rats [1]; rat): 4.5 mg/dL"
"C=C1C(O)CC(=CC=C2CCCC3(C)C2CCC3[C@H](C)[C@H](C)CCC(C)(C)O)CC1O (stereo partly drawn) [SAG-2, (20R,22R)-2-methylene-19-nor-22-methyl-1α,25-dihydroxyvitamin D3]",–,–,–,–,–,unexpectedly low in comparison to the native hormone,–,–,–,–,–,–
"C=C1[C@H](O)CC(=C/C=C2\CCC[C@@]3(C)C2CC[C@@H]3[C@@H](C)[C@@H](C)CCC(C)(C)O)C[C@H]1O (stereo partly drawn) [AGS-2, (20S,22S)-2-methylene-19-nor-22-methyl-1α,25-dihydroxyvitamin D3]",8000,3000,20000,–,"lower affinity relative to 1,25-(OH)2D3; also recorded: lower affinity than 1,25(OH)2D3; also recorded: bind the vitamin D receptor",relatively high 24-hydroxylase transcription activity,0.1,relatively high cell differentiation activity,0.15,"much reduced ability to mobilize calcium from bone compared to 1,25-(OH)2D3; also recorded: no net calcemic activity on bone; also recorded: essentially no ability to mobilize bone calcium except at extremely high concentrations","significant net intestinal calcium transport; also recorded: comparable or slightly higher intestinal calcium transport compared to 1,25(OH)2D3","transcription of the 24-hydroxylase gene, times less potent than 1,25(OH)2D3 ([4]; rat osteosarcoma cells, fold LESS potent): about 10 times; Net Bone Ca2+ Mobilization (Sprague-Dawley rats [1]; at 780 pM dosage): 0 mg/dL; bone calcium mobilization, times less potent than the native hormone (Sprague-Dawley rats [1]; rat, fold LESS potent in releasing bone calcium stores): approximately 50 times; Net Intestinal Ca2+ Transport (serosal Ca2+ to mucosal Ca2+ ratio, S/M) (Sprague-Dawley rats [2]; at 780 pM dosage): 4.3"
"C=C1C(O)CC(=CC=C2CCCC3(C)C2CCC3[C@@H](C)CCCC(C)(C)O)CC1O (single isomer, unassigned) [20S isomer of 2MD, 2-methylene-19-nor-1α,25-dihydroxyvitamin D3, reference compound]",–,–,–,−0.9,–,–,–,–,–,–,–,"HL-60 cell differentiation, times more potent than the native hormone (HL-60 cells): 27 times; net bone calcium mobilization activity (Sprague-Dawley rats [1]; rat): 9.3 mg/dL"
"C=C1[C@H](O)CC(=C/C=C2\CCC[C@@]3(C)C2CC[C@@H]3[C@@H](C)[C@H](C)CCC(C)(C)O)C[C@H]1O (stereo partly drawn) [AGS-1, (20S,22R)-2-methylene-19-nor-22-methyl-1α,25-dihydroxyvitamin D3]",70,8,10,4.3,"approximately equally effective as 1,25-(OH)2D3; also recorded: same affinity as 1,25(OH)2D3; also recorded: bind the vitamin D receptor",relatively high 24-hydroxylase transcription activity,38,relatively high cell differentiation activity,300,"more potent than 1,25-(OH)2D3; also recorded: does show activity with regard to net bone calcium mobilization; also recorded: more efficacious; also recorded: significantly higher bone calcium mobilization activity","more potent than 1,25-(OH)2D3; also recorded: higher potency in promoting intestinal calcium transport than the native hormone; also recorded: significantly higher","transcription of the 24-hydroxylase gene, times more potent than 1,25(OH)2D3 ([4]; bone cells, fold MORE potent): ~40 times; Net Bone Ca2+ Mobilization (Sprague-Dawley rats [1]; at 780 pM dosage): 5.3 mg/dL; Net Intestinal Ca2+ Transport (serosal Ca2+ to mucosal Ca2+ ratio, S/M) (Sprague-Dawley rats [2]; at 780 pM dosage): 9.9"

# Second part, led by results:
Ki [3] [pM],EC50 [4] [pM],EC50 (HL-60 cells) [pM],SMILES,"net intestinal calcium transport, serosal to mucosal ratio (Sprague-Dawley rats [2])","binding to the nuclear vitamin D receptor compared with 1,25(OH)2D3 (in words) [3]","24-hydroxylase transcription activity compared with 1,25(OH)2D3 (in words) ([4]; bone cells)",24OHase Transcription Relative Activity [4],cell differentiation activity (in words) (HL-60 cells),HL-60 Differentiation Relative Activity (HL-60 cells),"bone calcium mobilization activity compared with 1,25(OH)2D3 (in words) (Sprague-Dawley rats [1]; rat)","intestinal calcium transport activity compared with 1,25(OH)2D3 (in words) (Sprague-Dawley rats [2])",further results
90,300,600,"C=C1[C@H](O)CC(=C/C=C2\CCC[C@@]3(C)C2CC[C@@H]3[C@H](C)[C@@H](C)CCC(C)(C)O)C[C@H]1O (stereo partly drawn) [SAG-1, (20R,22S)-2-methylene-19-nor-22-methyl-1α,25-dihydroxyvitamin D3]",–,bind the vitamin D receptor,"approximately equal in potency to 1,25(OH)2D3",10,relatively high cell differentiation activity,3.3,"less potent than 1,25-(OH)2D3; also recorded: no net calcemic activity on bone; also recorded: less potent than the native hormone; also recorded: little or no ability to mobilize bone calcium except at extremely high doses","comparable or reduced potency in comparison to 1,25(OH)2D3 at lower concentrations but increased potency in comparison to 1,25(OH)2D3 at high concentrations","Net Bone Ca2+ Mobilization (Sprague-Dawley rats [1]; at 260 pM dosage): 0.3^7 mg/dL; Net Intestinal Ca2+ Transport (serosal Ca2+ to mucosal Ca2+ ratio, S/M) (Sprague-Dawley rats [2]; at 260 pM dosage): 1.3^7"
200,6000,9000,"C=C1[C@H](O)CC(=C/C=C2\CCC[C@@]3(C)C2CC[C@@H]3[C@H](C)[C@H](C)CCC(C)(C)O)C[C@H]1O (stereo partly drawn) [SAG-2, (20R,22R)-2-methylene-19-nor-22-methyl-1α,25-dihydroxyvitamin D3]",–,"less effective than 1,25-(OH)2D3; also recorded: bind the vitamin D receptor",–,0.05,–,0.3,"markedly lower than 1,25-(OH)2D3; also recorded: no net calcemic activity on bone; also recorded: very little to no activity in mobilizing calcium from bone stores; also recorded: little or no ability to mobilize bone calcium, even at extremely high concentrations","markedly lower than 1,25-(OH)2D3; also recorded: less potency compared to the native hormone; also recorded: little ability to increase transport, except at extremely high concentrations","affinity for the nuclear vitamin D receptor, times less than 1,25(OH)2D3 ([3]; competitive binding, fold LESS affinity than native hormone): approximately 4 times; Net Bone Ca2+ Mobilization (Sprague-Dawley rats [1]; at 260 pM dosage): −0.1^7 mg/dL; Net Intestinal Ca2+ Transport (serosal Ca2+ to mucosal Ca2+ ratio, S/M) (Sprague-Dawley rats [2]; at 260 pM dosage): 0.4^7"
